From patent US7271158B2, “Treatment of rumen acidosis with α-amylase inhibitors” (Pfizer Inc., priority 2000, dated 2007)

Test system: bacterial glucosidase activity from bovine rumen fluid cell suspension
Experiment: Rumen fluid glucosidase assay
Format: biochemical, bovine rumen bacteria
Conditions: rumen fluid glucosidase screen, maltose substrate
Procedure: Rumen Fluid Glucosidase Assay Protocol This assay is used to determine IC50 values for inhibitors of bacterial glucosidase activity from bovine rumen fluid cell suspension (RFCS) using a colorimetric assay. The assay measures conversion of maltose into glucose. Rumen fluid cells are incubated with maltose in the presence of inhibitors, and the amount of glucose produced is assessed using a red colourimetric endpoint. The higher the level of inhibition the lower the glucose produced and the less red colour produced. The plates are read at 450 nm. Main reaction: • Maltose+glucosidase→glucose Glucose assay • Glucose+ATP→[…] and ADP (Hexokinase and Mg^2+) • […] and NADP→6-phosphogluconate (6-PG) and NADPH • NADPH+phenazine methosulfate ([…] (iodonitrotetrazolium chloride)→[…] is deep red coloured. […] The rumen fluid was collected into pre-warmed vacuum flasks. It was then filtered through a double layer of absorbent gauze (Absorbent gauze BP, GAUZ 4 from Robert Bailey plc, Stockport) to remove hay and feed particles. The liquid was centrifuged at a relative centrifugal force of 650 for 15 minutes to remove food particles and protozoa. The supernatant was decanted into fresh tubes and centrifuged at a relative centrifugal force of 23,300 for 60 minutes. The supernatant and the loose top layer of the pellet were discarded. The pellet was resuspended in PBS at 1:8 of original volume i.e. 50 ml of PBS for the pellet from 400 ml of rumen fluid, and frozen at -20° C. When required for use the cells were thawed by standing the tube in cold water, and then diluted to […] of cells/well (45 μl/ml). Test compounds or controls were dispensed into the 96-well assay plate at 2 μl/well, followed by 50 μl per well of 10 mM maltose and 50 μl/well of rumen fluid cell suspension. The plate was incubated at 37° C. for 1 hour. Sigma glucose detection kit […] was reconstituted by addition of 17 ml of Millipore water and 4 ml of colour reagent to each vial. 100 μl of this solution was added per well and the plate returned to the 37° C. incubator for 45 minutes. The plate was then read at 450 nm. Active compounds cause a reduction in the optical density readings when compared to the no-inhibitor control wells.

CC1OC(OC2C(CO)OC(OC3C(CO)OC(O)C(O)C3O)C(O)C2O)C(O)C(O)C1NC1C=C(CO)C(O)C(O)C1O (stereo not shown) [Acarbose, acarbose]
IC50: 1080 nM
